# Assay results from patent US12338263B2, “Antibacterial aminoglycoside derivatives” (priority 2019, dated 2025).
# Where two headings read alike, the source gives them in different places.
# How the values were obtained:
# [1] = system: cochlear hair cells; assay: Auditory safety: hair cell staining and counting on the basilar membrane of the cochlea; type: in vivo, guinea pigs
# Method: (§1) Healthy adult guinea pigs (150-250 g) were employed as the research objects, and were randomly divided into saline control group, gentamicin group, compound Plazomicin group and Compound 1 group, with 8 animals in each group. Subcutaneous administration is used, and the following assays were carried out during and after the administration for 14 consecutive days: • 1. To analyze the effects of different drugs on the auditory function of guinea pigs, the compound action potential (CAP) of animals was recorded on the 14th day (29th day, i.e., 4 weeks) after administration. The results obtained were analyzed and the changes of the threshold shift, amplitude, latency and other indicators among different treatment groups were compared. • 2. After the different groups of animals were processed and the auditory function data thereof were collected, the cochlea of the animals was taken out for fixation and staining. Surface preparation of basilar membrane of the cochlea on one side was performed to count the loss of hair cells so as to make a cochlea map, and the cochlea on the other side was decalcified and frozen sectioned. The density of spiral ganglion neurons was counted and compared among groups. Research Results: 1. Administration Method and Treatment
# (§2) Gentamicin from Dalian Meilun Biotechnology Co., Ltd., and Plazomicin and Compound 1 from WuXi AppTec (WuHan) Co., Ltd. are used, the solution of which were prepared just before use each time by using saline for dissolution to the concentration of 50 mg/mL, and the injection dose was 100 mg/kg body weight. Method: subcutaneous injection, and confirmation of no liquid leakage after each injection.
# In order to compare the effects of different drugs on hair cells, hair cell staining and counting on the whole basilar membrane of the cochlea are performed. […] The Plazomicin group had 11.2-28.1% loss of outer hair cells in the high frequency (70-100% from the apical turn) and 16.7-24.2% loss of the outer hair cells at the beginning of the apical turn (10-20%). However, in the Compound 1 group, the loss of outer hair cells only occurred in the low-frequency region (from the top turn −40%), in which the loss rate of outer hair cells was about 2.5-11%, and the outer hair cells were relatively intact in the high frequency area (see FIG. 6 B).
# [2] = system: auditory function in guinea pigs; assay: Auditory safety: compound action potential (CAP) in guinea pigs; type: in vivo
# Method: as §1, §2
# The compound action potential (CAP) was tested and recorded when clicks and different frequencies of pure tones (1 KHz-32 kHz) were applied to each group of animals, and variations in amplitude and latency were mainly compared when clicks and medium and high frequency pure tones (16, 32 kHz) were applied. The magnitude of amplitude reflects the responsiveness of hair cells and auditory nerves. The larger the amplitude and the greater the slope of the I/O curve were, the better the responsiveness and the better the function were. In addition, the cochlea from apical turn to basal turn was responsive to sounds from low-frequency to high-frequency respectively, which is the frequency correspondence of the cochlear basilar membrane. The functional changes to different frequencies correspond to the different structural and functional changes of the cochlea fromapical turn to basal turn. The length of latency was also related to the function of the hair cells and auditory nerve response. Generally speaking, increasing of the threshold value when the cochlea was injured would inevitably lead to the extension of latency. […] In other words, the extension of latency reflected the decrease of response function. The previous ototoxicity of aminoglycoside antibiotics was mainly concentrated in the high-frequency area. In this study, the gentamicin group was consistent with previous results, as summarized below.
# [3] = system: spiral ganglion neurons; assay: Auditory safety: density of spiral ganglion neurons; type: in vivo, guinea pigs
# Method: as §1, §2
# The cochlea of the guinea pig was defined as Turn 1, Turn 2, Turn 3, and Turn 4 from the basal to the apical turn. The spiral ganglion neurons (SGNs) were stained with TuJ on frozen sections, and the density thereof in a specific area were counted and compared between groups. […] Through the two-way ANOVA, there was a significant difference between the groups, F(3, 74)=35.43, p<0.0001 (see FIG. 7).
# [4] = Toxicity test on HK-2 cells (Alma Blue); type: cell-based; conditions: human
# Method: (§3) On the day of the experiment, when the HK-2 cells in the culture flask reached 80%-90% confluent, the culture medium was discarded, the cells were washed twice with Dulbecco's phosphate buffered saline (DPBS) and digested for 1 to 2 minutes with 3 mL trypsin (T150 cell culture flask), and immediately 9 ml complete medium (RPMI1640+10% FBS) were added to terminate the digestion. After termination, single cells suspension were formed by pipetting gently, which were centrifuged at 1000 […] for 5 minutes. The supernatant was discarded, and fresh complete medium were added, and the cells were pipetted evenly. The actual cell density was measured according to the cell counter and the cell suspension was adjusted to 2.5×10^5 cells/mL. 80 μL of cell suspension was drawn by a row pipettor and added into a 96-well black bottom plate (2×10^4 cell/well), and then incubated in a carbon dioxide incubator for 4.5 hours, which was defined as a cell plate.
# (§4) • a. The compound mother liquor was prepared according to the following table, with complete medium as the solvent;
# (§5) • b. 50 microliters of complete medium was added into columns 3-11 in the 96-v well plate; • c. 75 microliters of test compound (50 mg/mL) and positive control were added to the second column of the 96-v well plate; • d. 25 microliters of compound was drawn from the second column and added into the third column, blown and sucked a few times by a row pipettor, then 25 microliters of liquid was drawn from the third column and added to the fourth column, and subsequently subjected to a 3-fold series dilution until the 10th column. From column 2 to column 11, the compound concentration was 50, 16.67, 5.56, 1.85, 0.62, 0.21, 0.07, 0.02, 0.008, 0 mg/mL; • e. 20 μL compound solutions of various concentrations prepared were transferred by a row pipettor to the corresponding wells of the cell plate, which was defined as a testing plate. Culture of the Testing Plate:
# (§6) All the plates were incubated in an incubator at 37° C., 5% CO2 for 43 hours.
# (§7) After incubation, 10 microliters of Alma Blue was added to the testing plate. The testing plate was immediately incubated in an incubator at 37° C., 5% CO2 for 3 hours. Then the fluorescence value of each well of the testing plate was read by a microplate reader (wavelength Ex 540 nm/Em 585 nm). Then prism software was used to simulate the curve to calculate CC50 value.
# [5] = system: HK-2 cells; assay: Toxicity test on HK-2 cells (Alma Blue); type: cell-based; conditions: for Maximum inhibition rate: 43 hours incubation plus 3 hours Alma Blue
# Method: as §3, §4, §5, §6, §7
# [6] = system: Klebsiella pneumoniae ATCC-BAA-1705; assay: Drug efficacy in mice (mouse pneumonia model); type: in vivo; conditions: CD-1 mice, 10 mpk and 30 mpk subcutaneously 2 h and 10 h after infection, read at 24 h; FIG. 2
# Method: 21 CD-1 mice were divided into 7 cages, 3 mice per cage, and were injected intraperitoneally with the immunosuppressant cyclophosphamide (150 mpk) on the 4th day.
# On the first day, 7 cages of mice were injected intraperitoneally again with the immunosuppressant cyclophosphamide (100 mpk). The strain Kpn ATCC-BAA-1705 (Klebsiella pneumoniae ATCC-BAA-1705) was recovered on a MHA plate. The recovered colonies were picked and dissolved in saline to prepare Kpn ATCC-BAA-1705 bacterial solution with a concentration of 4.00E+08 CFU/mL for later use in mouse lung infection. The amount of bacterial solution infected in the lung of experimental mice was 50 μL/mouse, that is, the inoculation amount was 2.00E+07 CFU/mouse. At 2 h and 24 h infection, the lung tissue of the mice in control group was taken and placed in 5 mL saline, homogenized, and dotted on a plate with gradient dilution.
# The specific administration of mice was as follows: • (1) 2 h after infection: At the end of 2 h after infection, the lung tissue of the mice in the first cage was taken and placed in 5 mL saline, homogenized, and dotted on a plate with gradient dilution, two duplications for each mouse. The amount of bacteria loaded in the lung tissue of the mouse was counted. Mice in the third and fourth cages were injected respectively with 30 mpk and 10 mpk compound Plazomicin subcutaneously, mice in the fifth and sixth cages were injected respectively with 30 mpk and 10 mpk compound subcutaneously, and mice in the seventh cage were injected with 100 mpk meropenem subcutaneously. • (2) 10 h after infection: Mice in the third and fourth cages were injected respectively with 30 mpk and 10 mpk plazomicin subcutaneously, mice in the fifth and sixth cages were injected respectively with 30 mpk and 10 mpk compound 1 subcutaneously, and mice in the seventh cage were injected with 100 mpk meropenem subcutaneously. At the end of 24 h infection, the lung tissue of the mice in the second to seventh cages was taken and placed in 5 mL saline, homogenized, and dotted on a plate with gradient dilution, two duplications for each mouse. The amount of bacteria carried in the lung tissue of the mouse was counted, and the experimental results were summarized and shown in FIG. 2.
# [7] = position 10 (% from the apical turn)
# [8] = position 20 (% from the apical turn)
# [9] = position 30 (% from the apical turn)
# [10] = position 40 (% from the apical turn)
# [11] = position 50 (% from the apical turn)
# [12] = position 60 (% from the apical turn)
# [13] = position 70 (% from the apical turn)
# [14] = position 80 (% from the apical turn)
# [15] = position 90 (% from the apical turn)
# [16] = position 100 (% from the apical turn)
# [17] = 43 hours incubation plus 3 hours Alma Blue, read-out: CC50 of HK-2 cell
# [18] = predicted from toxicity regression curve, read-out: CC50 of compound on cells predicted by software (Prism)
# [19] = guinea pig, in vivo, sc, 100 mg/kg
# [20] = guinea pig, in vivo, sc, 100 mg/kg, 29 day
compound,measurement,setting,value
Gentamicin,loss of outer hair cells,[1]; medium and high frequency region (60-100% from the apical turn),12-67.7%
same,loss of inner hair cells,[1]; near the end of the basal turn (100% from the apical turn),9.3±4.1%
same,Damage of inner hair cells on Day 29,[1]; [7],0%
same,Damage of outer ear hair cells on Day 29,[1]; [7],9.5 ± 2.9%
same,Damage of inner hair cells on Day 29,[1]; [8],0%
same,Damage of outer ear hair cells on Day 29,[1]; [8],4.1 ± 0.7%
same,Damage of inner hair cells on Day 29,[1]; [9],0%
same,Damage of outer ear hair cells on Day 29,[1]; [9],2.7 ± 0.7%
same,Damage of inner hair cells on Day 29,[1]; [10],0%
same,Damage of outer ear hair cells on Day 29,[1]; [10],3.2 ± 1.0%
same,Damage of inner hair cells on Day 29,[1]; [11],0%
same,Damage of outer ear hair cells on Day 29,[1]; [11],3.2 ± 1.5%
same,Damage of inner hair cells on Day 29,[1]; [12],0.4 ± 0.4%
same,Damage of outer ear hair cells on Day 29,[1]; [12],12.6 ± 5.6%
same,Damage of inner hair cells on Day 29,[1]; [13],0.6 ± 0.6%
same,Damage of outer ear hair cells on Day 29,[1]; [13],13.6 ± 6.1%
same,Damage of inner hair cells on Day 29,[1]; [14],0.2 ± 0.2%
same,Damage of outer ear hair cells on Day 29,[1]; [14],12.0 ± 5.4%
same,Damage of inner hair cells on Day 29,[1]; [15],2.5 ± 1.7%
same,Damage of outer ear hair cells on Day 29,[1]; [15],42.8 ± 8.2%
same,Damage of inner hair cells on Day 29,[1]; [16],9.3 ± 4.1%
same,Damage of outer ear hair cells on Day 29,[1]; [16],67.7 ± 9.8%
same,CAP amplitude at 16 kHz,"[2]; guinea pigs, 100 mg/kg subcutaneous 14 days, 29th day, 16 kHz, 90 dB",373.329±15.332 uv
same,CAP amplitude at 32 kHz,"[2]; guinea pigs, 100 mg/kg subcutaneous 14 days, 29th day, 32 kHz, 90 dB",31.272±5.137 uv
same,CAP amplitude under click,"[2]; guinea pigs, 100 mg/kg subcutaneous 14 days, 29th day, click",consistent with the Control group
same,hearing damage (CAP amplitude) at 32 kHz,"[2]; guinea pigs, 100 mg/kg subcutaneous for 14 consecutive days, 29th day, 32 kHz",74.3%
same,Density of spiral ganglion neurons on Day 29,[3]; Turn 1 (basal turn),4.407 ± 0.517 n/10000 μm^2
same,Density of spiral ganglion neurons on Day 29,[3]; Turn 2,5.540 ± 0.757 n/10000 μm^2
same,Density of spiral ganglion neurons on Day 29,[3]; Turn 3,4.604 ± 0.598 n/10000 μm^2
same,Density of spiral ganglion neurons on Day 29,[3]; Turn 4 (apical turn),5.259 ± 0.280 n/10000 μm^2
same,damage to spiral ganglion neurons (SGN density vs Control group),"[3]; guinea pigs, 100 mg/kg subcutaneous 14 days, FIG. 7",obvious damage in each turn
NCC[C@H](O)C(=O)N[C@@H]1C[C@H](N)[C@@H](O[C@H]2O[C@H](CN)[C@@H](O)[C@H](O)[C@H]2O)[C@H](O)[C@H]1O[C@H]1O[C@H](CO)[C@@H](O)[C@H](N)[C@H]1O [Amikacin],CC50 at 43 h,[4]; [17],8.16 mg/mL
same,CC50 at 43 h,[4]; [18],8.16 mg/mL
same,Maximum inhibition rate,[5],68.40%
CCN[C@@H]1C[C@H](N)[C@@H](O[C@H]2OC(CN)=CC[C@H]2N)[C@H](O)[C@H]1O[C@H]1OC[C@](C)(O)[C@H](NC)[C@H]1O [Netilmicin],CC50 at 43 h,[4]; [17],10.6 mg/mL
same,CC50 at 43 h,[4]; [18],10.6 mg/mL
same,Maximum inhibition rate,[5],48.73%
CN[C@@H]1[C@@H](O)[C@@H](O[C@@H]2[C@@H](O)[C@H](O[C@H]3OC(CNCCO)=CC[C@H]3N)[C@@H](N)C[C@H]2NC(=O)[C@@H](O)CCN)OC[C@]1(C)O [Plazomicin],loss of inner hair cells,"[1]; guinea pig, in vivo, 29 day",3.5±3.0%
same,in vivo activity in lung infection model (bacteria in lung tissue),[6],good in vivo activity
same,CAP amplitude under click,[2]; [19],caused hearing damage
same,CAP amplitude at 16 kHz,[2]; [20],282.058±22.569 uv
same,CAP amplitude at 32 kHz,[2]; [20],62.982±7.561 uv
same,hearing damage (CAP amplitude) at 16 kHz,[2]; [20],25.9%
same,hearing damage (CAP amplitude) at 32 kHz,[2]; [20],48.2%
same,CC50 at 43 h,[4]; [17],> 10 mg/mL
same,CC50 at 43 h,[4]; [18],19.5 mg/mL
same,toxicity to HK-2 cells compared with Netilmicin and Amikacin,[5],significantly lower than that of Netilmicin and Amikacin
same,Maximum inhibition rate,[5],35.98%
same,damage to spiral ganglion neurons (SGN density vs Control group),[3]; [19],decrease in SGN density near the apical turn
